Test results: patent US11554103B2, “Compositions and methods to reduce pharmaceutical-induced toxicity” (priority 2016, dated 2023)
“Also recorded” adds a separate entry of the source.

Assays:
[1] = tested on: substantia nigra pars compacta dopaminergic neurons; experiment: Ex vivo brain slice mitochondrial oxidant stress, mito-roGFP probe, two photon microscopy; assay type: cell-based, mouse; settings: for effect on methamphetamine-induced dendritic mitochondrial stress / effect on methamphetamine-induced axonal (terminal) mitochondrial stress: 10 μM methamphetamine; for effect on methamphetamine-induced dendritic mitochondrial stress / effect on methamphetamine-induced axonal (terminal) mitochondrial stress / effect on levodopa-induced dendritic mitochondrial stress / effect on levodopa-induced axonal (terminal) mitochondrial stress / basal mitochondrial stress, monoamine oxidase inhibitor alone: clorgyline 5 μM; for effect on levodopa-induced dendritic mitochondrial stress / effect on levodopa-induced axonal (terminal) mitochondrial stress: 100 μM levodopa; for basal mitochondrial stress, monoamine oxidase inhibitor alone: dendrites and axons; for effect on methamphetamine- and levodopa-induced mitochondrial stress: slices pre-incubated with the MAO inhibitor
Method: (§1) Animals and treatment paradigms: Male C57/B16 and TH-mitoroGFP (Guzman et al., 2010 Nature p. 696; incorporated by reference in its entirety) mice 5-8 wks of age were used for all imaging studies. In addition to the TH-mitoroGFP transgenic line, roGFP was virally delivered into the SNc of C57/B16 mice (either targeting cytosolic or mitochondrial compartments).
(§2) Two photon microscopy: Ex vivo slices of the dorsolateral striatum or SNc were prepared and redox status determined as previously described (Guzman et al., 2010 Nature p. 696; incorporated by reference in its entirety). […] The dynamic range of the probe was determined by perfusing 2 mM dithiothreitol (DTT) to fully reduce the probe and 200 μM aldrithiol to fully oxidize the probe; data presented as % relative oxidation.
Stereotaxic surgery: PCR amplified roGFP, mitoroGFP and IMSroGFP inserts were subcloned into pFB-TH-SV40pA vector between EcoR1 and SalI sites. After sequence and expression verification, pFB-TH-roGFP vectors were packaged into rAAVs using serotype 9 with titers 2.1-×10^13 viral genome copies/ml (Virovek). Mice were anesthetized using an isoflurane precision vaporizer (Smiths Medical PM) and placed in a stereotaxic frame (David Kopf Instruments) with a Cunningham adaptor (Harvard Apparatus) to maintain anesthesia delivery throughout surgery. After exposing the skull, a small hole was drilled and 350 nL of AAV9-TH-cytosolic roGFP or AAV9-TH-mitoroGFP delivered via a glass micropipette (Drummond Scientific Company) pulled on a Sutter P-97 puller. The substantia nigra pars compacta (SNc) was targeted at the following coordinates: AP: −3.05, ML: 1.20, and DV −4.30. All surgeries were performed in wild-type mice. Experiments in animals with stereotaxic delivery of AAV viral vectors were performed after at least 10 days post-op.
Ex vivo slice preparation: Mice were terminally anesthetized with a mixture of ketamine (50 mg/kg)/xylazine (4.5 mg/kg) and transcardially perfused with ice cold modified artificial cerebrospinal fluid (aCSF) containing in mM: 124.0 NaCl, 3.0 KCl, 1.0 CaCl2, 2.0 MgCl2, 26 NaHCO3, 1.0 NaH2PO4, and 16.66 glucose. Once perfused the brain was rapidly removed and either saggital or coronal slices containing the dorsolateral striatum (275 μm thick) or the SNc (220 μm thick) sectioned using a vibratome (VT1200S Leica Microsystems). Slices were transferred to a holding chamber containing normal aCSF containing in mM: 124.0 NaCl, 3.0 KCl, 2.0 CaCl2, 1.0 MgCl2, 26 NaHCO3, 1.0 NaH2PO4, and 16.66 glucose and allowed at least 30-40 minutes to recover prior to experiments. All solutions were pH 7.4, 310-320 mOsm and continually bubbled with 95% O2/5% CO2.
Ex vivo redox measurements and two photon microscopy: Oxidant stress was assessed using the redox sensitive roGFP probe targeted either to the cytosol or mitochondrial matrix as previously described.^10 Slices were transferred to a recording chamber and continuously perfused with normal aCSF at 32-34° C. Fluorescence was measured using an Ultima Laser Scanning Microscope system (Bruker) with a DODT contrast detector to provide bright-field transmission images with an Olympus 60/0.9NA lens. A two-photon laser (Chameleon Ultra II, Coherent Inc.) tuned to 920 nm was used to excite roGFP. Time series image acquisitions of the roGFP probe were obtained with 60 frames obtained over ˜20 seconds with 0.195 μm×0.195 μm pixels and 10-12 μsec dwell times. The dynamic range of the probe was determined with 2 mM dithiothreitol, a reducing agent, and 200 μM aldrithiol, an oxidizing agent, which were sequentially perfused and t-series acquired with each to determine the maximal and minimal fluorescence intensity. Test measurements were calculated as relative oxidation. T-series were analyzed offline and fluorescence measurements in multiple regions of interest evaluated with background subtracted.^10 Final data is presented as percent of control (aCSF perfusion).

[2] = tested on: human iPSC-derived dopamine neurons; experiment: iPSC redox measurements (roGFP, one photon microscopy); assay type: cell-based; settings: for axonal mitochondrial stress in the intermembrane space: 100 μM levodopa vs control, IMS-roGFP
Excerpt: Human iPSC culture and neural differentiation: The iPSC line was generated from skin fibroblasts of a healthy individual through retroviral expression of OCT4, SOX2, cMYC, KLF4 and previously clinically characterized.^23-25 Differentiation of iPSCs into midbrain dopaminergic neurons was done according to published protocols.^26 To help control neuralization variability, cells were passaged en bloc (size of 1-2 mm) between days 11 and 14, followed by plating onto poly-d-lysine (PDL)/laminin coated 10 cm dishes. Between days 25 and 30, neural blocks were passed by accutase treatment onto PDL/laminin coated culture dishes. Neuralization growth factors were withdrawn at day 40 and neurons were maintained in Neurobasal media (Life Technologies) containing Neurocult SM1 (Stemcell technologies).
iPSC redox measurements and one photon microscopy: Human iPSC-derived dopaminergic neurons were grown on 12 mm glass coverslips and imaged between 75 and 88 days post-differentiation. Two to four days before experimentation, dopaminergic neurons were infected with viral vectors targeting roGFP expression to mitochondrial matrix (AAV9-TH-mitoroGFP), mitochondrial intermembrane space (AAV9-TH-IMSroGFP),^17 or the cytosol (AAV9-TH-cytoroGFP)^7. Cultures were transferred to an imaging chamber mounted on an inverted epifluorescence microscope (Nikon TE300) with a 40×/1.35NA oil-immersion objective. The imaging chamber was superfused with aCSF at a flow rate of 1 ml/min. Imaging experiments were carried out at 31-33° C. Cells were illuminated by Polychrome V (TILL Photonics) and emissions were captured with a cooled CCD camera (Hamamatsu ImagEM) and Slidebook imaging software (Intelligent Imaging Innovations). Regions of interests in the dendrites or axon were selected for image analysis. […] Afterwards, neurons were perfused with 2 mM dithiothreitol for 20 min and then 100 μM aldrithiol for 20 min to obtain full roGFP dynamic range.^7

[3] = tested on: substantia nigra pars compacta dopaminergic neurons; experiment: Ex vivo brain slice cytosolic oxidant stress, cyto-roGFP probe, two photon microscopy; assay type: cell-based, mouse; settings: bath application of 20 μM menadione
Method: as §1
as §2, with “oxidation. […]” for “oxidation.”
Ex vivo redox measurements and two photon microscopy: Oxidant stress was assessed using the redox sensitive roGFP probe targeted either to the cytosol or mitochondrial matrix as previously described.^10 Slices were transferred to a recording chamber and continuously perfused with normal aCSF at 32-34° C. Fluorescence was measured using an Ultima Laser Scanning Microscope system (Bruker) with a DODT contrast detector to provide bright-field transmission images with an Olympus 60/0.9NA lens. […] Test measurements were calculated as relative oxidation. […]

[4] = tested on: substantia nigra pars compacta dopaminergic neurons; experiment: Chronic in vivo methamphetamine administration for 28 days, stereology and striatal optical density (Example 2)
Method: Immunohistochemistry and stereological analysis: Mice were terminally anesthetized with a mixture of ketamine (50 mg/kg)/xylazine (4.5 mg/kg) and transcardially perfused with 4% paraformaldehyde, post-fixed overnight and cryoprotected in 30% sucrose/phosphate buffered saline (PBS) at 4° C. until use. Serial coronal sections (60 μm thick) were collected throughout the midbrain and striatum. To stain for tyrosine hydroxylase the anti-tyrosine hydroxylase polyclonal antibody (Millipore) 1:2000 followed by goat anti-rabbit IgG biotin conjugated antibody (Millipore) 1:500 with normal goat serum blocking solution was used; after antibody incubation and rinsing with PBS, sections were incubated with ABC Elite Kit (Vector) and processed for diaminobenzidine reaction. Slices were mounted on slides, allowed to dry overnight, dehydrated in ascending alcohol concentrations and mounted with DPX mountant (Sigma). The estimated number of tyrosine hydroxylase positive (TH^+) cells were stereologically counted as previously described.^27 Slices from DAT-Cre X Ai14 mice expressing TdTomato in dopaminergic neurons were mounted on slides, allowed to dry, and mounted with Prolong Gold antifade mountant (Invitrogen). The estimated number of tdTomato expressing cells were stereologically counted. Sampling for stereological quantification was done using an Olympus BX41 microscope with motorized stage (Applied Scientific Instrumentation) and computerized stereology software (Stereologer). The SNc was delineated in each animal in every other section and cells counted using a 40×/0.65NA Olympus lens.
Drug application in ex vivo brain slice or iPSC experiments was performed via perfusion in aCSF.

[5] = tested on: tyrosine hydroxylase positive cells in the SNc; experiment: Methamphetamine 14 days plus 14 days withdrawal, stereology of tyrosine hydroxylase positive cells (Example 1); assay type: in vivo, mouse
Method: as §1
Stereology: Brains were fixed with 4% paraformaldehyde and serial coronal sections ([…]) were stained for tyrosine hydroxylase. Total number of tyrosine hydroxylase positive cells were counted in the SNc with the optical fractionator method (West et al., 1991 Anat Rec p. 482; Ilijic et al., 2011 Neurobiol Dis p. 364; incorporated by reference in their entireties).

SNc dopaminergic neurons = experiment: Pacemaking frequency in ex vivo slices; assay type: cell-based, mouse; settings: 10 μM methamphetamine
[6] = 5 mg/kg methamphetamine, 28 consecutive days
[7] = rasagiline 10 μM, listed as rasagaline
[8] = 1 mg/kg rasagiline pretreatment, 5 mg/kg methamphetamine

COC(=O)C1=C(C)NC(C)=C([N+](=O)[O-])C1c1ccccc1C(F)(F)F (stereo not drawn) [Bay K 8644]
axonal (terminal) mitochondrial stress ([1]; 10 μM drug alone, relative to control (aCSF), dorsolateral striatum slices): increased axonal mitochondrial stress

[Cl-].[K+] [KCl]
axonal mitochondrial stress ([1]; 15 mM KCl alone): not significantly altered | axonal mitochondrial stress ([1]; 30 mM KCl perfusion): increased axonal mitochondrial stress

C#CCN(C)CCCOc1ccc(Cl)cc1Cl [clorgyline]
effect on methamphetamine-induced dendritic mitochondrial stress ([1]; rasagiline 10 μM): prevented | effect on methamphetamine-induced axonal (terminal) mitochondrial stress ([1]; rasagiline 10 μM): attenuated; also recorded: prevented rises in mitochondrial stress | effect on levodopa-induced dendritic mitochondrial stress ([1]; rasagiline 10 μM): prevented | effect on levodopa-induced axonal (terminal) mitochondrial stress ([1]; rasagiline 10 μM): attenuated; also recorded: prevented rises in mitochondrial stress | basal mitochondrial stress, monoamine oxidase inhibitor alone ([1]; rasagiline 10 μM): Neither rasagiline nor clorgyline had any effect on basal mitochondrial oxidant stress; also recorded: had no effect on mitochondrial stress | effect on methamphetamine- and levodopa-induced mitochondrial stress [1]: attenuated; also recorded: diminished the mitochondrial redox effects of methamphetamine and levodopa

N[C@@H](Cc1ccc(O)c(O)c1)C(=O)O [levodopa, L-3,4-dihydroxyphenylalanine]
axonal mitochondrial stress (mitochondrial matrix roGFP) ([2]; 100 μM levodopa vs basal): increased axonal mitochondrial stress | dendritic mitochondrial stress (mitochondrial matrix roGFP) ([2]; 100 μM levodopa vs basal): increased | axonal mitochondrial stress in the intermembrane space [2]: increased axonal mitochondrial stress in the intermembrane space | axonal mitochondrial stress in the intermembrane space ([2]; listed as Levodopa): robustly increased oxidant stress within the intermembrane space | mitochondrial matrix oxidant stress in human dopaminergic neurons ([2]; levodopa): increased mitochondrial matrix oxidant stress in human dopaminergic neurons in a MAO-dependent manner

CC1=CC(=O)c2ccccc2C1=O [menadione]
cyto-roGFP oxidation state [3]: > 200 % above baseline

CNC(C)Cc1ccccc1 (stereo not drawn) [methamphetamine, N-methylamphetamine]
tyrosine hydroxylase expressing neurons (TH+ neurons) in the SNc, stereological quantification ([4]; 5 mg/kg methamphetamine ip, 28 consecutive days): significantly decreased tyrosine hydroxylase (TH) immunoreactivity in the SNc; also recorded: loss of tyrosine hydroxylase expressing neurons | SNc axons in the striatum, optical density measurements [4, 6]: loss of tdTomato fluorescence in both the striatum and SNc neurons; also recorded: loss of SNc axons in the striatum | labeled (tdTomato) SNc neurons, Dat-Cre X Ai14 mice, stereological quantification [4, 6]: loss of tdTomato fluorescence in both the striatum and SNc neurons | tyrosine hydroxylase positive (TH+) cells ([5]; 5 mg/kg methamphetamine for 14 days, sacrificed after 14 days withdrawal): loss of TH+ cells | pacemaking frequency (SNc dopaminergic neurons): attenuated

C#CCN[C@@H]1CCc2ccccc21 [rasagiline]
effect on d-amphetamine-induced axonal mitochondrial stress ([1]; 10 μM d-amphetamine, rasagiline 10 μM): prevented | effect on methamphetamine-induced dendritic mitochondrial stress ([1]; rasagiline 10 μM): prevented | effect on methamphetamine-induced axonal (terminal) mitochondrial stress ([1]; rasagiline 10 μM): attenuated | effect on methamphetamine-induced axonal (terminal) mitochondrial stress [1, 7]: prevented | effect on levodopa-induced dendritic mitochondrial stress ([1]; rasagiline 10 μM): prevented | effect on levodopa-induced axonal (terminal) mitochondrial stress ([1]; rasagiline 10 μM): attenuated | effect on levodopa-induced axonal (terminal) mitochondrial stress [1, 7]: prevented | basal mitochondrial stress, monoamine oxidase inhibitor alone ([1]; rasagiline 10 μM): Neither rasagiline nor clorgyline had any effect on basal mitochondrial oxidant stress; also recorded: had no effect on mitochondrial stress | effect on methamphetamine- and levodopa-induced mitochondrial stress [1]: attenuated | effect on methamphetamine-induced loss of SNc neurons, Dat-Cre X Ai14 mice ([4]; 1 mg/kg rasagiline 30 min pretreatment, 5 mg/kg methamphetamine): significantly reduced degeneration in both the striatum and SNc; also recorded: prevented | effect on methamphetamine-induced loss of SNc axons in the striatum [4, 8]: significantly reduced degeneration in both the striatum and SNc; also recorded: prevented | effect on methamphetamine-induced loss of TH+ neurons [4, 8]: prevented | effect on methamphetamine-induced loss of TH+ cells ([5]; 1 mg/kg rasagiline, 30 min pretreatment, 5 mg/kg methamphetamine 14 days): prevented meth-induced loss of TH+ cells
